Results: patent US20220225910A1, “Modulating Electron Transfer Kinetics in E-DNA-type Sensors” (The Regents of the University of California, priority 2019, published 2022)
Read-outs that look alike come from different tables or passages of the source. {C6SH} = six-carbon thiol for deposition on gold; {MB} = methylene blue redox reporter

Assays:
E-AB sensor = experiment: In vivo control injections, sensor specificity; set-up: species or system Sprague-Dawley rats; settings: camptothecin E-AB sensor in live rat, KDM
From the text: FIGS. 6A, 6B, and 6C. FIG. 6A depicts signals collected at high (120 Hz) and low (10 Hz) frequencies by a sensor of the invention. […] FIG. 6B: taking the difference (KDM) between the normalized high (120 Hz) and low (10 Hz) frequency signals produces a stable baseline.

[1] = In vivo pharmacokinetic measurement with indwelling E-AB sensor in jugular vein; settings: rat; for distribution rate (a): intravenous
Experimental: In-vivo measurements. All in vivo measurements were performed using a three-electrode setup in which the counter electrodes were made of platinum wire and the reference electrodes were a silver wire coated with a silver chloride film as described above. The measurements carried out in vivo were recorded using a handheld potentiostat from CH Instruments (Model 1242 B). Square Wave Voltammetry (SWV) was performed using a potential window of −0.1 to −0.45 V, a potential step of 0.001 V and 0.05 V amplitude
For in vivo measurements a 30 min sensor baseline was established before the drug infusion. A 3 mL syringe filled with the target drug was connected to the sensor-free catheter (placed in the jugular opposite that in which the sensor is emplaced) and placed in a motorized syringe pump. […] After drug infusion, recordings were taken for up to 1 hour before the next infusion. The real-time plotting and analysis of voltammetric data were carried out with the help of a script written in Python.
Animals. In vivo measurements were performed in male and female Sprague-Dawley rats (4-5 months old) weighing between 300 and 500 g. All animals were pair housed in a standard light cycle room (08:00 on, 20:00 off) and allowed ad libitum access to food and water. For in vivo measurements rats were induced under 5% isoflurane anesthesia in a Plexiglas anesthesia chamber. The rats were then maintained on 2-3% isoflurane gas for the duration of the experiment. A small incision was made above each vein, then each vein was isolated. A small hole was cut into each vein with spring-loaded microscissors. The silastic catheter inserted into the left jugular vein was constructed with a bent steel cannula with a screw-type connector and silastic tubing (11 cm, i.d. 0.64 mm, o.d. 1.19 mm). […]
where A and B are amplitudes, and […] for distribution and elimination, respectively. […] The area under the curve (AUC) was calculated using the parameters A, B, α and β, because integrating the equation 5 from 0 to infinity, it holds: […]
The clearance (ClT) was calculated by the equation: […]

[2] = Square wave voltammetry frequency vs signal change (%); type: binding; settings: aptamer alone on sensor
From the text: Square wave voltammetry frequency vs signal change (%) plot. […] Then the estimated signal change (%) was plotted in function of the relative square wave frequency.

[3] = E-AB sensor titration curves in working buffer (square wave voltammetry); type: binding; settings: simple buffered solution
Experimental: Electrode functionalization. […] This was then dissolved in “assembling buffer” (10 mM Na2HPO4 with 1 M NaCl and 1 mM MgCl2 at pH 7.3) at a final concentration of 500 nM. The electrochemically cleaned gold electrodes were then immersed in 200 μL of this solution for 1 hour in the dark. Following this the electrode surface was rinsed with distilled water and incubated overnight at 4° C. in assembling buffer containing 5 mM 6-mercaptohexanol, followed by a further rinse with distilled water before use. […] These were then dissolved in buffer (10 mM Na2HPO4 with 1 M NaCl and 1 mM MgCl2 at pH 7.3) using different ratio of the two DNA probes. The total oligonucleotide concentration was kept constant at 500 nM to maintain a constant DNA probes packing density. The electrochemically cleaned gold electrodes were then immersed in 200 μL of this solution composed of two DNA probes for 1 hour in the dark. Following this step, the electrode surface was rinsed with distilled water and incubated overnight at 4° C. in assembling buffer containing 5 mM 6-mercaptohexanol, followed by a further rinse with distilled water before use. In-vitro measurements. Electrochemical measurements were performed at room temperature using a CH[…] potentiostat with a CHI684 Multiplexer (CH Instruments, Austin, Tex.) and a standard three-electrode cell containing a platinum counter electrode and a Ag/AgCl (3 M KCl) reference electrode. […] Titration curves. […] Using the values estimated from the previous fitting procedure the raw signal current was converted in signal change % (C%) using the following equation: […]

[4] = E-AB sensor binding curves in flowing undiluted whole blood
Experimental: Titration curves. Experimental titration curves were performed in 10 mL of working buffer (137 mM NaCl, KCl 2.7 mM, Na2HPO4 10 mM, KH2PO4 1.8 mM at pH 7.3) using three E-AB sensors modified with the oligonucleotide probe and using a SWV frequency of 10 and 120 Hz.
The binding curves performed in whole blood were conducted following the previous described experimental approach but using a closed-loop system with a continuous flow of whole blood (total volume of 20 mL at 1 mL/s) through a circulator pump.

[5] = Solution binding of the unmodified aptamer, using the intrinsic fluorescence of irinotecan; settings: unmodified aptamer free in solution, read-out: dissociation constant
[6] = Sensor equilibration time; type: binding; settings: in buffer, clinically relevant concentrations, 500 Hz
Experimental: Sensor equilibration time. The sensor's equilibration time was determined using the above experimental approach and interrogating the sensor every 5 s in working buffer and using a SWV frequency of 500 Hz. […] The observed signal change was fitted to a single exponential decay to obtain the equilibration time constant of the sensor.

[7] = unstructured 10-base strand; cited from earlier work

| Compound | dependence of gain on square-wave frequency [2] | signal gain relative to other variants [3] | E-AB sensing performance in whole blood [4] | other results |
| --- | --- | --- | --- | --- |
| O=c1[nH]cc(F)c(=O)[nH]1 [5-fluorouracil] |  |  |  | sensor response to control injection (E-AB sensor): do not produce any measurable sensor response |
| CCc1c2c(nc3ccc(OC(=O)N4CCC(N5CCCCC5)CC4)cc13)-c1cc3c(c(=O)n1C2)COC(=O)[C@]3(O)CC [irinotecan] |  |  |  | variation in CMAX or the rate of the distribution phase between rats ([1]; both, Sprague-Dawley, in vivo, 20 mg/kg): 10-20%; distribution rate (a) ([1]; 10 mg kg (first value)): 0.58 ± 0.07 min; distribution rate (a) ([1]; 20 mg kg (second value)): 0.48 min |
| CA16: camptothecin aptamer, only the G-quadruplex binding pocket: 5′-GGGTGGGTGGGTTGGG-3′ (chemistry not given here) | only a weak function of square-wave frequency | greatest signal gain | supported high-gain E-AB sensing |  |
| CA28: truncated camptothecin aptamer: 5′-CGGACTTGGGTGGGTGGGTTGGGGTACG-3′ (DNA CGGACTTGGGTGGGTGGGTTGGGGTACG; listed as DNA, chemistry not fully specified) | only a weak function of square-wave frequency | greatest signal gain | supported high-gain E-AB sensing |  |
| CA32: truncated camptothecin aptamer: 5′-TCCGGACTTGGGTGGGTGGGTTGGGGTACGGT-3′ (DNA TCCGGACTTGGGTGGGTGGGTTGGGGTACGGT; listed as DNA, chemistry not fully specified) | only a weak function of square-wave frequency | greatest signal gain | supported high-gain E-AB sensing |  |
| CA40: 40-base truncation of the known camptothecin-binding DNA aptamer; G-quadruplex flanked by a 12-base-pair stem (DNA ACGCTCCGGACTTGGGTGGGTGGGTTGGGGTACGGTGCGT; DNA, 5' {C6SH}, 3' {MB}, backbone not given here; further chemistry not fully specified) |  |  |  | Kd ([5]; listed as parent aptamer): 475 nM; Kd [5]: ~475 nM; gain [4]: about 15%; association and dissociation kinetics, time constants [6]: < 5 s |
| CA40_2MM: camptothecin aptamer, two mismatches: 5′-ACGCTCTGGACTTGGGTGGGTGGGTTGGGGTACGGTGTGT-3′ (DNA ACGCTCTGGACTTGGGTGGGTGGGTTGGGGTACGGTGTGT; listed as DNA, chemistry not fully specified) |  | greatest signal gain |  |  |
| SEQ ID NO: 8: secondary moiety: unstructured 10-base strand, random sequence of adenines and thymines, reporter-modified (DNA ATTATTTTTT; reporter-modified, reporter and position not given here) |  |  |  | rate of electron transfer [7]: 80 per second |
